Numbering of substitutions follows the chain as printed. Where a SMILES comes first, the peptide text is derived from it.
Experiments:
[1] = molecular target: T1, hTAS1R2 + hTAS1R3 R723A^5.36 (Homo sapiens, UniProt Q7RTX0+Q8TE23, R723A); assay: Calcium response (FLIPR), hTAS1R3 mutant coexpressed with hTAS1R2; format: cell-based; settings: variant R723A^5.36; for Emax: read-out: maximal signal (% of wt)
T1 construct: expressed in transfected cells; host or cells: HEK293T cells stably expressing G16Gust44
T1 sequence (Q8TE23 20-839): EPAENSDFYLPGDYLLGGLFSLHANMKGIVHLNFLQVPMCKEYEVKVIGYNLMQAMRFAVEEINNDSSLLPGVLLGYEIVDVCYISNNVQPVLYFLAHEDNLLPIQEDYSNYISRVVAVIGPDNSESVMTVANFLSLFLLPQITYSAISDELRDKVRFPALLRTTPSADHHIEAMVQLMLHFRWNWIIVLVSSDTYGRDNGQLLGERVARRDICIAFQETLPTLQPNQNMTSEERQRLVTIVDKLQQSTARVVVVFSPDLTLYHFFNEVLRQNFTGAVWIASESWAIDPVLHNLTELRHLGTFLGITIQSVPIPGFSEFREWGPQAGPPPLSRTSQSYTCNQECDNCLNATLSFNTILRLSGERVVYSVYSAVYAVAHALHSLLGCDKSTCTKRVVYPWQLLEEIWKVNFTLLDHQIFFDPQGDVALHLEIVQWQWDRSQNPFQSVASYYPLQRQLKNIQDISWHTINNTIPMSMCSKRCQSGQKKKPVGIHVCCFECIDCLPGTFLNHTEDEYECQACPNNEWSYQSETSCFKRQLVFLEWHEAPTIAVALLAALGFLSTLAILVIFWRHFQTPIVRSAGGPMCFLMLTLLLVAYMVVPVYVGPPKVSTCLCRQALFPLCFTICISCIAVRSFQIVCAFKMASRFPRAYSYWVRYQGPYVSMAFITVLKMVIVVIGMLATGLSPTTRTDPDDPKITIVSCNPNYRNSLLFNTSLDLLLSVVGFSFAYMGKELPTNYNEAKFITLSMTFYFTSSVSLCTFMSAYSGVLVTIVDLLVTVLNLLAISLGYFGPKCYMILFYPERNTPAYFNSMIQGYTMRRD
T1 sequence (Q7RTX0 21-852 R723A): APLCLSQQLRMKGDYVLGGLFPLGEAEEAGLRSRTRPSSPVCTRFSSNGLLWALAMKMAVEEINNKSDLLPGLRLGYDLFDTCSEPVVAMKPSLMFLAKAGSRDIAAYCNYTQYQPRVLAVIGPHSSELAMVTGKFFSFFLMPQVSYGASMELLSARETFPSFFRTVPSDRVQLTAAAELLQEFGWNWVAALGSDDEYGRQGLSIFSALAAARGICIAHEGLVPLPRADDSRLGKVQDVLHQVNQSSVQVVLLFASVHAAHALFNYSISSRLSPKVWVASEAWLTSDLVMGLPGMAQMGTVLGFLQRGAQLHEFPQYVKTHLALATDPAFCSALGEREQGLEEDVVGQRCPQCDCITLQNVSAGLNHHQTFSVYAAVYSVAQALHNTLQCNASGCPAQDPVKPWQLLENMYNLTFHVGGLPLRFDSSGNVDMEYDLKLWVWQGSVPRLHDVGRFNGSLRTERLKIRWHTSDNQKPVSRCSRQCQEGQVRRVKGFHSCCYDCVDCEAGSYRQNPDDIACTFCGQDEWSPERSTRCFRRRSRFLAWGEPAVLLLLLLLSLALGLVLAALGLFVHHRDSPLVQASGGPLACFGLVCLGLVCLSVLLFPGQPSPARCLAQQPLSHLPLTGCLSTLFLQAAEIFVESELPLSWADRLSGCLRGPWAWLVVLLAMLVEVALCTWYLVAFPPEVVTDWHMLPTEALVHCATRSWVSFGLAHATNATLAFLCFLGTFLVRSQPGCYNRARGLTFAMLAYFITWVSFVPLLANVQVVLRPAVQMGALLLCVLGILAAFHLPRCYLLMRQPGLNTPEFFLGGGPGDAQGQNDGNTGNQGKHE
How it was run: (§1)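 HEK293T cells stably expressing chimeric G16Gust44 were transiently transfected with C-terminally HSV-tagged hTAS1R2 and mutant hTAS1R3, then loaded 24 h later with Fluo4-AM for 1 h. Calcium mobilization after sweet-tastant application was read by FLIPR, mock-corrected and expressed as ΔF/F.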

[2] = molecular target: T2, hTAS1R2 + hTAS1R3 R790Q^ex3 (Homo sapiens, UniProt Q7RTX0+Q8TE23, R790Q); assay: as above; format: cell-based; settings: variant R790Q^ex3; for Emax: read-out: maximal signal (% of wt)
T2 construct: expressed in transfected cells; host or cells: HEK293T cells stably expressing G16Gust44
T2 sequence (Q8TE23 20-839): T1 sequence (Q8TE23 20-839)
T2 sequence (Q7RTX0 21-852 R790Q): T1 sequence (Q7RTX0 21-852 R723A) with A703R, R770Q
How it was run: as §1

SMILES: COc1ccc(CCC(=O)c2c(O)cc(O[C@@H]3O[C@H](CO)[C@@H](O)[C@H](O)[C@H]3O[C@@H]3O[C@@H](C)[C@H](O)[C@@H](O)[C@H]3O)cc2O)cc1O [NHDC, neohesperidin dihydrochalcone]
- EC50 [1]: 200 ± 100 µM
- Emax [1]: 69 ± 71%
- EC50 [2]: 100 ± 60 µM
- Emax [2]: 77 ± 15%

SMILES: COC(=O)[C@H](Cc1ccccc1)NC(=O)[C@@H](N)CC(=O)O [aspartame] (HELM PEPTIDE1{D.F.[CO[*:1]]}$$$$V2.0)
- EC50 [1]: 1500 ± 500 µM
- Emax [1]: 68 ± 50%
- EC50 [2]: 900 ± 400 µM
- Emax [2]: 71 ± 30%

Reference: article PMC2099433, “The binding site for neohesperidin dihydrochalcone at the human sweet taste receptor” (BMC Structural Biology, 2007)
